Here are results for 15 compounds from patent US20100022509A1, “Inhibitors of MshC and Homologs Thereof, and Methods of Identifying Same” (priority 2006, published 2010).

Where two headings read alike, the source gives them in different places. Marks after values point to notes of the source that are not given here.

The % inhibition is the relative decrease from the control value, in per cent. For orientation: Km means the concentration of substrate that gives half-maximal velocity.

Assay type in all cases: biochemical, M. tuberculosis
Assay [1] has as its target T1, MshC (Mycobacterium tuberculosis, UniProt P9WJM9).
T1 sequence (P9WJM9 1-414): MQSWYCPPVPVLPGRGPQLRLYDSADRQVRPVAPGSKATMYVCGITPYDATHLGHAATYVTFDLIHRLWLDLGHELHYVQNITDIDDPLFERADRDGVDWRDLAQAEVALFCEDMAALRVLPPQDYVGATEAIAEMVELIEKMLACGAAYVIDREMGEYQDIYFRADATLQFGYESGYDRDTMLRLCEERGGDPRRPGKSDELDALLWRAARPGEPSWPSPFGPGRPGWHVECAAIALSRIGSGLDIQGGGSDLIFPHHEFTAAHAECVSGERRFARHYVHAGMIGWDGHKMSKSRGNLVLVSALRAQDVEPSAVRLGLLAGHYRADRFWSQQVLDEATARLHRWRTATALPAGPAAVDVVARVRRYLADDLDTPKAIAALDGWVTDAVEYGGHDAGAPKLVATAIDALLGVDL
The assay can be described thus: Metal chelation by phenanthrolines. The conditions noted are these: 0.1-5 mM phenanthroline.

Assay [2] deals with T1, MshC. The assay can be described thus: Inhibition studies of MshC ligase activity (HEPES pH 7.5, HPLC). The note with it: for % inhibition: 50 μM GlcN-Ins and 70 μM Cys.
Assay [3] has as its target T1, MshC. The conditions noted are these: for activity as alternative substrate to Cys, in words: 80 μM to 1.6 mM.
Assay [4] has as its target T1, MshC. Description: Zn supplementation. The note with it: 2, 10, 50 or 100 μM zinc chloride.
Assay [5] addresses T1, MshC. The assay can be described thus: biochemical. The note with it: using the HPLC assay.
Assay [6] addresses T1, MshC. Description: Coupled enzyme spectrophotometric screening assay (MshC plus pyrophosphatase, malachite green). The note with it: 1.6 mM cysteamine, 1 μg MshC.
[7] abbreviates: 80-1600 μM, 70 μM L-Cys and 50 μM GlcN-Ins.

Turning to `c1cnc2c(c1)ccc1cccnc12` [1,10-phenanthroline], in assay [1], the “effect on enzyme activity, in words” value is recorded as “no significant loss of activity”.

`CC(=O)N[C@@H](CS)C(=O)O` [AcCys, N-acetylcysteine]: the “inhibition of the ligase activity, in words” value in assay [2] (setting [7]) was “minor inhibition”. Moreover, in assay [2] ([inhibitor] 1600 μM), the “% inhibition” value is reported as 20 ± 6%. For the same compound, in assay [3], the relative spec. act. entry is on record as “≦0.24” and the “activity as alternative substrate to Cys, in words” value (from here on “activity as alternative substrate”) is listed as “Nor was significant activity detected”.

Regarding `N[C@@H](CS)C(=O)O` [Cys, L-cysteine], the “apparent Vmax” value in assay [3] was 1450 ± 200 nmol/min/mg. In assay [3] (Cys 70 μM, 50 μM GlcN-Ins, 37° C.), the Specific activity result is on record as “^cSpecific activity 108 nmol min^−1 mg^−1”. In addition, the relative spec. act. entry in assay [3] (Cys 70 μM, reference) is recorded as “(100)^c”. Also, the Km in assay [3] (as stated in the feedback inhibition paragraph, read-out: apparent Km value for Cys) was determined as 70 ± 15 µM; in assay [3] (pH 7.5, read-out: apparent Km for L-Cys), 85 ± 20 µM.

`N[C@@H](CS)C(=O)N[C@H]1[C@@H](OC2[C@H](O)[C@H](O)C(O)[C@H](O)[C@H]2O)O[C@H](CO)[C@@H](O)[C@@H]1O` (some centres unmarked) [Cys-GlcN-Ins, cysteinyl glucosaminyl inositol]: in assay [2], the “inhibition (feedback)” value was less than 1.0%.

For the compound `N[C@H](CS)C(=O)O` [D-Cys], the “inhibition of the ligase activity, in words” value in assay [2] (setting [7]) is “very minor inhibition”. For the same compound, the “% inhibition” value in assay [2] ([inhibitor] 1600 μM) is 15 ± 8%. Also, in assay [3], the relative spec. act. result is recorded as “≦0.7” and the “activity as alternative substrate” value is reported as “poor substrate”.

`N[C@H]1C(O)O[C@H](CO)[C@@H](O)[C@@H]1O` (stereo partly drawn) [D-GlcN]: in assay [3], the “activity relative to GlcN-Ins” value is recorded as roughly 1% and the relative spec. act. was 1.2.

`N[C@H]1[C@@H](O[C@@H]2[C@H](O)[C@H](O)[C@@H](O)[C@H](O)[C@H]2O)O[C@H](CO)[C@@H](O)[C@@H]1O` [GlcN-Ins, 1-O-(2-amino-2-deoxy-α-D-glucopyranosyl)-D-myo-inositol]: the “apparent Vmax” value in assay [3] (GlcN-Ins varied, 1 mM ATP and 0.5 mM Cys) is 1160 ± 120 nmol/min/mg. For the same compound, the Km in assay [3] (pH 7.5, read-out: apparent Km for GlcN-Ins) came to 280 ± 43 µM.

On to `C[C@H](N)C(=O)O` [L-alanine], for which the “inhibition of the ligase activity, in words” value in assay [2] (setting [7]) is on record as “very minor inhibition”. In addition, in assay [2] ([inhibitor] 5000 μM), the “% inhibition” value amounted to 4 ± 8%. In assay [3], the relative spec. act. entry was “≦0.016” and the “activity as alternative substrate” value is recorded as “Nor was significant activity detected”.

Turning to `N[C@@H](CCS)C(=O)O` [L-homocysteine], the “inhibition of the ligase activity, in words” value in assay [2] (setting [7]) is “very minor inhibition”. The “% inhibition” value in assay [2] ([inhibitor] 1600 μM) is given as 0 ± 5%. For the same compound, in assay [3], the relative spec. act. result is “≦0.2” and the “activity as alternative substrate” value is on record as “Nor was significant activity detected”.

As for `N[C@@H](CO)C(=O)O` [L-serine], the “inhibition of the ligase activity, in words” value in assay [2] (setting [7]) is recorded as “very minor inhibition”. Further, in assay [2] ([inhibitor] 5000 μM), the “% inhibition” value is given as 15 ± 8%. Moreover, in assay [3], the relative spec. act. result is listed as “≦0.008” and the “activity as alternative substrate” value is recorded as “Nor was significant activity detected”.

As for `CC[C@H](N)C(=O)O` [L-α-aminobutyric acid], the “inhibition of the ligase activity, in words” value in assay [2] (setting [7]) is “very minor inhibition”.

On to `CC(=O)N[C@@H](CS)C(=O)N[C@H]1[C@@H](OC2[C@H](O)[C@H](O)C(O)[C@H](O)[C@H]2O)O[C@H](CO)[C@@H](O)[C@@H]1O` (stereo partly drawn) [MSH, 1-D-myo-inosityl 2-(N-acetyl-L-cysteinyl)amido-2-deoxy-α-D-glucopyranoside], for which the “inhibition of the ligase activity, in words” value in assay [2] (1 and 5 mM, physiologic levels) was “minimal inhibition”. In addition, the “% inhibition” value in assay [2] ([inhibitor] 1000 μM) is listed as 4 ± 3%; in assay [2] ([inhibitor] 5000 μM), 7 ± 5%.

As to `[Cl-].[Cl-].[Zn+2]` [Zn^2+, zinc chloride], in assay [4], the “effect on enzyme activity, in words” value is on record as “loss in activity”.

Turning to `NCCS` [cysteamine], the “inhibition of the reaction catalyzed by MshC, in words” value in assay [5] is listed as “weak inhibitor”. In assay [6], the “rate of phosphate production in the coupled enzyme assay” value is listed as “markedly depressed”. The compound also gave a reduction in rate in assay [2] (1.6 mM) of 3 fold. In addition, the “% inhibition” value in assay [2] ([inhibitor] 1600 μM) is 65 ± 10%. Moreover, in assay [3], the relative spec. act. result is given as “≦0.16”.

On to `O=C(O)CCS` [β-mercaptopropionate, β-mercaptopropionic acid], for which the “inhibition of the ligase activity, in words” value in assay [2] (setting [7]) is “minor inhibition”. Also, the “% inhibition” value in assay [2] ([inhibitor] 1600 μM) is −20 ± 20%. Moreover, the relative spec. act. entry in assay [3] is “≦0.004”.
